Assay results from patent publication US20060257322A1, “Pharmaceutical agents that contain fluoroalkyl-containing metal complexes and epothilones” (priority 2005, published 2006).
Several values for one entry are separate records, joined by “and”; a condition that tells them apart may be missing. Identical values can stand only once. Like-named read-outs stand apart in the source and are kept apart here.

Experiments:
[1] = assay type: in vivo, hairless mice; settings: for Relative animal weights: day 0 (about 30-35 g) normalized to 1
Procedure: (§1) A549 lung tumors were induced in hairless mice (4×10^6 cells/30 μl of full medium). Animal weights and tumor surface areas/volumes were determined, and in this case, the tumor surface area or the tumor volume (based on an ellipsoid of revolution) was calculated. Length and width of the tumor were measured with vernier calipers. After reaching the size of a pea, the treatment was begun.
(§2) • (a) 20 mmol of Gd/l of the Gd complex compound as mentioned in Example 1 or 3 (as a comparison solution=Blank reading) • (b) 1.5 mmol/l of the epothilone as mentioned in Example 1 or 3, in aqueous hydroxypropyl-β-cyclodextrin solution (prior art) (For the production of formulations in the prior art, see WO 99/07692 and WO 00/4902 1) • (c) Formulation of Example 1 or 3 (formulation according to the invention) Dosages: • (a) 100 μmol of Gd/kg of body weight • (b) 11 μmol/kg or 18 μmol/kg of body weight • (c) 100 μmol of Gd/kg+11 (or 18) μmol of epothilone/kg of body weight (corresponds to the ratio in the formulation of Example 1 or 3).
(§3) The animal weights and tumor sizes were measured over a period of 20 days after intravenous administration.

A549 lung tumors = assay type: in vivo, hairless mice; settings: day 0 normalized to 1
Procedure: as §1, §2, §3

[2] = Day 5, 11 μmol of epothilone/kg of body weight i.v. (formulations: plus 100 μmol of Gd/kg)
[3] = Day 5, 18 μmol of epothilone/kg of body weight i.v. (formulations: plus 100 μmol of Gd/kg)
[4] = Day 11, 11 μmol of epothilone/kg of body weight i.v. (formulations: plus 100 μmol of Gd/kg)
[5] = Day 11, 18 μmol of epothilone/kg of body weight i.v. (formulations: plus 100 μmol of Gd/kg)
[6] = Day 15, 11 μmol of epothilone/kg of body weight i.v. (formulations: plus 100 μmol of Gd/kg)
[7] = Day 15, 18 μmol of epothilone/kg of body weight i.v. (formulations: plus 100 μmol of Gd/kg)
[8] = Day 20, 11 μmol of epothilone/kg of body weight i.v. (formulations: plus 100 μmol of Gd/kg)
[9] = Day 20, 18 μmol of epothilone/kg of body weight i.v. (formulations: plus 100 μmol of Gd/kg)
[10] = first days after substance administration, 11 μmol of epothilone/kg of body weight i.v.
[11] = first days after substance administration, 18 μmol of epothilone/kg of body weight i.v.

Row | Compound | Relative animal weights (in words) ([1]; mouse, in vivo, iv) | Relative tumor surface area (A549 lung tumors; [2]) | Relative tumor surface area (A549 lung tumors; [3]) | Relative tumor surface area (A549 lung tumors; [4]) | Relative tumor surface area (A549 lung tumors; [5]) | Relative tumor surface area (A549 lung tumors; [6]) | Relative tumor surface area (A549 lung tumors; [7]) | Relative tumor surface area (A549 lung tumors; [8]) | Relative tumor surface area (A549 lung tumors; [9]) | Relative animal weights [1, 2] | Relative animal weights [1, 3] | Relative animal weights [1, 4] | Relative animal weights [1, 5] | Relative animal weights [1, 6] | Relative animal weights [1, 7] | Relative animal weights [1, 8] | Relative animal weights [1, 9] | Relative animal weights (in words) [1, 10] | Relative animal weights (in words) [1, 11]
1 | Cc1nc(/C=C(\Cl)[C@@H]2C[C@@H]3O[C@]3(C)CCC[C@H](C)[C@H](O)[C@@H](C)C(=O)C(C)(C)[C@@H](O)CC(=O)O2)cs1 [Epothilone C, (1S,3S(Z),7S,10R,11S,12S,16R)-7,11-Dihydroxy-3-(1-chloro-2-(2-methyl-4-thiazolyl)ethenyl)-8,8,10,12,16-pentamethyl-4,17-dioxabicyclo[14.1.0]heptadecane-5,9-dione] | small weight loss | 1.1 ± 0.1 | 1.1 ± 0.1 | 1.4 ± 0.3 | 1.3 ± 0.3 | 1.5 ± 0.3 | 1.6 ± 0.3 | 1.5 ± 0.2 | 1.5 ± 0.2 | – | – | – | – | – | – | – | – | – | –
2 | C=CC[C@H]1C(=O)C(C)(C)[C@@H](O)CC(=O)O[C@H](c2ccc3sc(C)nc3c2)C[C@@H]2O[C@]2(C)CCC[C@H](C)[C@@H]1O [Epothilone F, (1S,3S,7S,10R,11S,12S,16R)-7,11-Dihydroxy-3-(2-methylbenzothiazol-5-yl)-10-(prop-2-en-1-yl)-8,8,12,16-tetramethyl-4,17-dioxabicyclo[14.1.0]heptadecane-5,9-dione] | – | 1.1 ± 0.1 | 1.1 ± 0.1 | 1.3 ± 0.2 | 1.2 ± 0.2 | 1.5 ± 0.3 | 1.4 ± 0.1 | 1.5 ± 0.4 | 1.5 ± 0.2 | 0.94 | 0.92 | 0.97 | 0.93 | 0.97 | 0.97 | 0.96 | 0.99 | small weight loss | small weight loss
3 | CC[C@H]1C(=O)C(C)(C)[C@@H](O)CC(=O)O[C@H](/C(F)=C/c2ccccn2)C/C=C(/C)CCC[C@H](C)[C@@H]1O [Epothilone G, 4S,7R,8S,9S,13(Z),16S(Z)-4,8-Dihydroxy-16-(1-fluoro-2-(2-pyridyl)ethenyl)-7-ethyl-1-oxa-5,5,9,13-tetramethyl-cyclohexadec-13-ene-2,6-dione] | – | 1.1 ± 0.1 | 1.1 ± 0.1 | 1.3 ± 0.1 | 1.3 ± 0.4 | 1.5 ± 0.3 | 1.5 ± 0.3 | 1.6 ± 0.2 | 1.6 ± 0.2 | 0.94 | 0.945 | 0.97 | 0.97 | 0.95 | 0.97 | 0.96 | 0.98 | small weight loss | small weight loss
4 | C#CCC[C@H]1C(=O)C(C)(C)[C@@H](O)CC(=O)O[C@H](/C(C)=C/c2ccccn2)C/C=C(/C)CCC[C@H](C)[C@@H]1O [Epothilone I, (4S,7R,8S,9S,13(Z),16S(E))-4,8-Dihydroxy-16-(1-methyl-2-(2-pyridyl)ethenyl)-1-oxa-5,5,9,13-tetramethyl-7-(but-3-in-1-yl)-cyclohexadec-13-ene-2,6-dione] | – | 1.2 ± 0.1 | – | 1.3 ± 0.3 | – | 1.4 ± 0.3 | – | 1.5 ± 0.1 | – | 0.93 | – | 0.97 | – | 0.97 | – | 0.98 | – | small weight loss | –
5 | C=CC[C@H]1C(=O)C(C)(C)[C@@H](O)CC(=O)O[C@H](/C(C)=C/c2csc(C)n2)C/C=C(/C)CCC[C@H](C)[C@@H]1O [Epothilone K, (4S,7R,8S,9S,13(Z),16S(E))-4,8-Dihydroxy-16-(1-methyl-2-(2-methylthiazol-4-yl)ethenyl)-1-oxa-5,5,9,13-tetramethyl-7-(prop-2-en-1-yl)-cyclohexadec-13-ene-2,6-dione] | small weight loss | – | 1.1 ± 0.1 | – | 1.3 ± 0.3 and 1.3 ± 0.1 | – | 1.5 ± 0.2 | – | 1.6 ± 0.1 and 1.5 ± 0.2 | – | – | – | – | – | – | – | – | – | –
6 | C#CC[C@H]1C(=O)C(C)(C)[C@@H](O)CC(=O)O[C@H](/C(F)=C/c2csc(C)n2)C/C=C(/C)CCC[C@H](C)[C@@H]1O [Epothilone L, (4S,7R,8S,9S,13(Z),16S(Z))-4,8-Dihydroxy-16-(1-fluoro-2-(2-methylthiazol-4-yl)ethenyl)-7-(prop-2-in-1-yl)-1-oxa-5,5,9,13-tetramethyl-cyclohexadec-13-ene-2,6-dione] | – | 1.1 ± 0.1 | 1.1 ± 0.1 | 1.3 ± 0.1 | 1.3 ± 0.2 | 1.5 ± 0.2 | 1.5 ± 0.2 | 1.5 ± 0.2 | 1.5 ± 0.1 | 0.93 | 0.94 | 0.96 | 0.95 | 0.97 | 0.97 | 0.98 | 0.96 | small weight loss | small weight loss
7 | C#CC[C@H]1C(=O)C(C)(C)[C@@H](O)CC(=O)O[C@H](/C(F)=C/c2coc(C)n2)C/C=C(/C)CCC[C@H](C)[C@@H]1O [Epothilone N, (4S,7R,8S,9S,13(Z),16S(Z))-4,8-Dihydroxy-16-(1-fluoro-2-(2-methyloxazol-4-yl)ethenyl)-7-(prop-2-in-1-yl)-1-oxa-5,5,9,13-tetramethyl-cyclohexadec-13-ene-2,6-dione] | – | 1.1 ± 0.1 | – | 1.2 ± 0.2 | – | 1.5 ± 0.3 | – | 1.6 ± 0.4 | – | 0.94 | – | 0.97 | – | 0.98 | – | 0.96 | – | small weight loss | –
